# Reference: US8802597B2, “Herbicidal pyrimidines” (E I du Pont de Nemours and Company, priority 2003, dated 2014)
# What was measured:
# Type in all cases: in vivo
# [1] = system: bermudagrass (Cynodon dactylon); experiment: Test G pre/postemergence
# In short: (§1)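 Test chemicals in non-phytotoxic solvent with surfactant applied preemergence to sown seeds or nutlets and postemergence to plants 2–18 cm tall (1- to 4-leaf stage). Greenhouse-held 12–21 days, then visually rated against untreated controls on a 0 (no effect) to 100 (complete control) scale.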
# [2] = system: Surinam grass (Brachiaria decumbens); experiment: Test G pre/postemergence
# In short: as §1
# [3] = system: downy bromegrass (Bromus tectorum); experiment: Test G pre/postemergence
# In short: as §1
# [4] = system: guineagrass (Panicum maximum); experiment: Test G pre/postemergence
# In short: as §1
# [5] = system: quackgrass (Elytrigia repens); experiment: Test G pre/postemergence
# In short: as §1
# [6] = system: goosegrass (Eleusine indica); experiment: Test G pre/postemergence
# In short: as §1
# [7] = system: common chickweed (Stellaria media); experiment: Test G pre/postemergence
# In short: as §1
# [8] = system: field bindweed (Convolvulus arvensis); experiment: Test G pre/postemergence
# In short: as §1
# [9] = system: common ragweed (Ambrosia elatior); experiment: Test G pre/postemergence
# In short: as §1
# [10] = system: dallisgrass (Paspalum dilatatum); experiment: Test G pre/postemergence
# In short: as §1
# [11] = system: catchweed bedstraw (galium; Galium aparine); experiment: Test D pre/postemergence; settings: scale 0 to 100 (100 = complete control)
# Text: (§2) Seeds of plant species selected from catchweed bedstraw (galium; Galium aparine), common chickweed (Stellaria media), kochia (Kochia scoparia), lambsquarters (Chenopodium album), pigweed (Amaranthus retroflexus), Russian thistle (Salsola kali), wild buckwheat (Polygonum convolvulus), wild mustard (Sinapis arvensis), winter barley (Hordeum vulgare), and wheat (Triticum aestivum) were planted and treated preemergence with test chemicals formulated in a non-phytotoxic solvent mixture which included a surfactant.
# (§3) At the same time, plants selected from these crop and weed species were treated with postemergence applications of some of the test chemicals formulated in the same manner. Plants ranged in height from 2 to 18 cm (1- to 4-leaf stage) for postemergence treatments. Treated plants and controls were maintained in a controlled growth environment for 15 to 25 days after which time all species were compared to controls and visually evaluated. Plant response ratings, summarized in Table D, are based on a scale of 0 to 100 where 0 is no effect and 100 is complete control. A dash (-) response means no test result.
# [12] = system: pigweed (Amaranthus retroflexus); experiment: Test D pre/postemergence; settings: scale 0 to 100 (100 = complete control)
# Text: as §2, §3
# [13] = Postemergence, 250 g ai/ha, scale 0 to 100
# [14] = Postemergence, 500 g ai/ha, scale 0 to 100
# [15] = Postemergence, 62 g ai/ha, scale 0 to 100
# [16] = Postemergence, 125 g ai/ha, scale 0 to 100
# [17] = Postemergence, 375 g ai/ha, scale 0 to 100
# [18] = Preemergence, 62 g ai/ha, scale 0-100
# [19] = Preemergence, 125 g ai/ha, scale 0-100
# [20] = Preemergence, 250 g ai/ha, scale 0-100
# [21] = Preemergence, 500 g ai/ha, scale 0 to 100
# [22] = Preemergence, 375 g ai/ha, scale 0 to 100
# [23] = Preemergence, 500 g ai/ha, scale 0-100
compound,measurement,setting,value
"CCOC(=O)c1nc(C2CC2)nc(N)c1Br [Compound 1, ethyl 6-amino-5-bromo-2-cyclopropyl-4-pyrimidinecarboxylate]","Plant response rating, Bermudagrass",[1]; [13],40
same,"Plant response rating, Bermudagrass",[1]; [14],50
same,"Plant response rating, Bermudagrass",[1]; [15],25
same,"Plant response rating, Bermudagrass",[1]; [16],25
same,"Plant response rating, Bermudagrass",[1]; [17],40
same,"Plant response rating, Bermudagrass",[1]; [18],10
same,"Plant response rating, Bermudagrass",[1]; [19],20
same,"Plant response rating, Bermudagrass",[1]; [20],30
same,"Plant response rating, Bermudagrass",[1]; [21],70
same,"Plant response rating, Bermudagrass",[1]; [22],70
same,"Plant response rating, Surinam Grass",[2]; [13],85
same,"Plant response rating, Surinam Grass",[2]; [14],90
same,"Plant response rating, Surinam Grass",[2]; [15],30
same,"Plant response rating, Surinam Grass",[2]; [16],60
same,"Plant response rating, Surinam Grass",[2]; [17],90
same,"Plant response rating, Surinam Grass",[2]; [18],95
same,"Plant response rating, Surinam Grass",[2]; [19],95
same,"Plant response rating, Surinam Grass",[2]; [20],95
same,"Plant response rating, Surinam Grass",[2]; [23],95
same,"Plant response rating, Surinam Grass",[2]; [21],100
same,"Plant response rating, Bromegrass, Downy",[3]; [13],60
same,"Plant response rating, Bromegrass, Downy",[3]; [14],80
same,"Plant response rating, Bromegrass, Downy",[3]; [15],30
same,"Plant response rating, Bromegrass, Downy",[3]; [16],30
same,"Plant response rating, Bromegrass, Downy",[3]; [17],70
same,"Plant response rating, Bromegrass, Downy",[3]; [18],0
same,"Plant response rating, Bromegrass, Downy",[3]; [19],20
same,"Plant response rating, Bromegrass, Downy",[3]; [20],95
same,"Plant response rating, Bromegrass, Downy",[3]; [21],95
same,"Plant response rating, Bromegrass, Downy",[3]; [22],95
same,"Plant response rating, Guineagrass",[4]; [13],95
same,"Plant response rating, Guineagrass",[4]; [14],95
same,"Plant response rating, Guineagrass",[4]; [15],60
same,"Plant response rating, Guineagrass",[4]; [16],70
same,"Plant response rating, Guineagrass",[4]; [18],70
same,"Plant response rating, Guineagrass",[4]; [19],70
same,"Plant response rating, Guineagrass",[4]; [20],85
same,"Plant response rating, Guineagrass",[4]; [21],100
same,"Plant response rating, Guineagrass",[4]; [22],100
same,"Plant response rating, Quackgrass",[5]; [13],60
same,"Plant response rating, Quackgrass",[5]; [14],70
same,"Plant response rating, Quackgrass",[5]; [15],10
same,"Plant response rating, Quackgrass",[5]; [16],30
same,"Plant response rating, Quackgrass",[5]; [17],70
same,"Plant response rating, Quackgrass",[5]; [18],10
same,"Plant response rating, Quackgrass",[5]; [19],60
same,"Plant response rating, Quackgrass",[5]; [20],90
same,"Plant response rating, Quackgrass",[5]; [23],95
same,"Plant response rating, Quackgrass",[5]; [21],95
same,"Plant response rating, Goosegrass",[6]; [13],60
same,"Plant response rating, Goosegrass",[6]; [14],60
same,"Plant response rating, Goosegrass",[6]; [15],20
same,"Plant response rating, Goosegrass",[6]; [16],60
same,"Plant response rating, Goosegrass",[6]; [17],60
same,"Plant response rating, Goosegrass",[6]; [18],0
same,"Plant response rating, Goosegrass",[6]; [20],50
same,"Plant response rating, Goosegrass",[6]; [21],50
same,"Plant response rating, Goosegrass",[6]; [22],50
same,"Plant response rating, Chickweed",[7]; [13],95
same,"Plant response rating, Chickweed",[7]; [16],95
same,"Plant response rating, Chickweed",[7]; [17],100
same,"Plant response rating, Chickweed",[7]; [18],70
same,"Plant response rating, Chickweed",[7]; [19],95
same,"Plant response rating, Chickweed",[7]; [20],95
same,"Plant response rating, Chickweed",[7]; [21],100
same,"Plant response rating, Chickweed",[7]; [22],100
same,"Plant response rating, Bindweed, Field",[8]; [13],95
same,"Plant response rating, Bindweed, Field",[8]; [14],95
same,"Plant response rating, Bindweed, Field",[8]; [15],90
same,"Plant response rating, Bindweed, Field",[8]; [16],95
same,"Plant response rating, Bindweed, Field",[8]; [17],95
same,"Plant response rating, Bindweed, Field",[8]; [18],95
same,"Plant response rating, Bindweed, Field",[8]; [19],100
same,"Plant response rating, Bindweed, Field",[8]; [20],100
same,"Plant response rating, Bindweed, Field",[8]; [21],100
same,"Plant response rating, Bindweed, Field",[8]; [22],100
same,"Plant response rating, Ragweed",[9]; [13],95
same,"Plant response rating, Ragweed",[9]; [14],100
same,"Plant response rating, Ragweed",[9]; [15],75
same,"Plant response rating, Ragweed",[9]; [16],95
same,"Plant response rating, Ragweed",[9]; [17],100
same,"Plant response rating, Ragweed",[9]; [18],50
same,"Plant response rating, Ragweed",[9]; [19],95
same,"Plant response rating, Ragweed",[9]; [20],100
same,"Plant response rating, Ragweed",[9]; [23],100
same,"Plant response rating, Ragweed",[9]; [21],100
same,"Plant response rating, Dallisgrass",[10]; [13],30
same,"Plant response rating, Dallisgrass",[10]; [14],30
same,"Plant response rating, Dallisgrass",[10]; [15],10
same,"Plant response rating, Dallisgrass",[10]; [16],20
same,"Plant response rating, Dallisgrass",[10]; [17],30
same,"Plant response rating, Dallisgrass",[10]; [18],0
same,"Plant response rating, Dallisgrass",[10]; [19],10
same,"Plant response rating, Dallisgrass",[10]; [20],50
same,"Plant response rating, Dallisgrass",[10]; [21],95
same,"Plant response rating, Dallisgrass",[10]; [22],95
same,"Plant response rating, Galium","[11]; Postemergence, 16 g ai/ha",95
same,"Plant response rating, Galium","[11]; Postemergence, 31 g ai/ha",100
same,"Plant response rating, Galium","[11]; Postemergence, 62 g ai/ha",100
same,"Plant response rating, Galium","[11]; Postemergence, 125 g ai/ha",100
same,"Plant response rating, Galium","[11]; Preemergence, 16 g ai/ha",80
same,"Plant response rating, Galium","[11]; Preemergence, 31 g ai/ha",80
same,"Plant response rating, Galium","[11]; Preemergence, 62 g ai/ha",100
same,"Plant response rating, Galium","[11]; Preemergence, 125 g ai/ha",100
same,"Plant response rating, Pigweed","[12]; Postemergence, 16 g ai/ha",60
same,"Plant response rating, Pigweed","[12]; Postemergence, 31 g ai/ha",100
same,"Plant response rating, Pigweed","[12]; Postemergence, 62 g ai/ha",100
same,"Plant response rating, Pigweed","[12]; Postemergence, 125 g ai/ha",100
same,"Plant response rating, Pigweed","[12]; Preemergence, 16 g ai/ha",60
same,"Plant response rating, Pigweed","[12]; Preemergence, 31 g ai/ha",70
same,"Plant response rating, Pigweed","[12]; Preemergence, 62 g ai/ha",95
same,"Plant response rating, Pigweed","[12]; Preemergence, 125 g ai/ha",100
